These results are taken from US10077243B2, “Compounds for treating disorders mediated by metabotropic glutamate receptor 5, and methods of use thereof” (Sunovion Pharmaceuticals Inc., priority 2009, dated 2018).

Bounds are passed on as bounds.

The target in the experiment is T1, human mGluR5 (Homo sapiens, UniProt P41594).
T1 construct: expressed in transfected cells; host or cells: HEK293 cells stably expressing rat GLAST (EAAT1), stably transfected with pcDNAzeo3.1 carrying synthetic human mGluR5 DNA; zeocin-selected single clones
T1 sequence (P41594 21-1212): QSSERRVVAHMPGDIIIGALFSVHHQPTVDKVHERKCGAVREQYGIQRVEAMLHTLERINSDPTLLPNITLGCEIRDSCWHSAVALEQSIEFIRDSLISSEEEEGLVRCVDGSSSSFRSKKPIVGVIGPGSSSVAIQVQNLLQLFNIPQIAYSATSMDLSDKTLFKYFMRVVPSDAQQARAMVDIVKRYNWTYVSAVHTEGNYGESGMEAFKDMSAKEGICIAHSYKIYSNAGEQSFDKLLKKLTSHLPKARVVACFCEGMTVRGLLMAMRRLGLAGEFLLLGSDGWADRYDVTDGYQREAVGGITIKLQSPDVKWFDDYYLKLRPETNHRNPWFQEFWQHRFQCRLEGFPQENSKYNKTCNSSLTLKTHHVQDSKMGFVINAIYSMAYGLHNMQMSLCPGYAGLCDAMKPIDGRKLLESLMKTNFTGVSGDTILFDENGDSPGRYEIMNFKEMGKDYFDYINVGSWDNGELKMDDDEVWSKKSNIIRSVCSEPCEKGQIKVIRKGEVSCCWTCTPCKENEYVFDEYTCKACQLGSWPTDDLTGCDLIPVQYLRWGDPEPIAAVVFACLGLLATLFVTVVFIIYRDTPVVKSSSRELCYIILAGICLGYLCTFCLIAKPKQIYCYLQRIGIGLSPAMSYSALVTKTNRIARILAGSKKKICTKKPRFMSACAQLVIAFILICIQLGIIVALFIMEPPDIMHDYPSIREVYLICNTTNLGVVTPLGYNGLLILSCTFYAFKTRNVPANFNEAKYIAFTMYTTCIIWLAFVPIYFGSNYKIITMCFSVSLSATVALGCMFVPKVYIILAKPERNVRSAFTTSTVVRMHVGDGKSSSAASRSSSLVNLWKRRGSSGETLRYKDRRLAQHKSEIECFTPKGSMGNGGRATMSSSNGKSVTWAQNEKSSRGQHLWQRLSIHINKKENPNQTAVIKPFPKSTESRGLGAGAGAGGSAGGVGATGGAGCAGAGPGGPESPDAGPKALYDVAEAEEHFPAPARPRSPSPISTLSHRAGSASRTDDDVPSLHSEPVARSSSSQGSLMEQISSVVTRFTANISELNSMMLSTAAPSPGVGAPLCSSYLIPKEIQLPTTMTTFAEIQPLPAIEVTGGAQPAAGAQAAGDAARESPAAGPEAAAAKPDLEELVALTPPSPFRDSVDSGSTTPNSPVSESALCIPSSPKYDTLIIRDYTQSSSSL
Put plainly: In vitro cell-based FLIPR calcium assay for positive modulation of the activation of mGluR5 by glutamate (PAM EC50). Particulars: HEK293/GLAST cells expressing recombinant human mGluR5; FLIPR calcium signal; glutamate added at its EC20; read-out: mGluR5 PAM EC50. The method in brief:
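HEK293/GLAST cells stably expressing mGluR5 were loaded with calcium-sensitive dye (25 °C, 45–60 min) in HBSS/20 mM HEPES. Test compounds were assayed in buffer containing glutamate at that day's EC20, with FLIPR fluorescence recorded. Controls contained 0.3% DMSO without compound.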
What is called EC50 is the midpoint of the concentration-response curve. As to `CC1(C)CCc2c(nc3cc(C#Cc4ccccn4)ccn3c2=O)C1` [Example 15.3, 3,3-dimethyl-7-(pyridin-2-ylethynyl)-3,4-dihydro-1H-pyrido[2,1-b]quinazolin-11(2H)-one], the EC50 is less than 10 nM.
On to `O=c1c2ccc(C#Cc3ccccn3)nc2nc2n1CCCCC2` [Example 12.5, 2-(pyridin-2-ylethynyl)-8,9,10,11-tetrahydropyrido[2′,3′:4,5]pyrimido[1,2-a]azepin-5(7H)-one], for which the EC50 fell in the range of 300 to 1000 nM.
In the case of `CN1CCc2nc3cc(C#Cc4ccc(F)cc4)ccc3c(=O)n2CC1` [Example 8.1, 8-((4-fluorophenyl)ethynyl)-3-methyl-2,3,4,5-tetrahydro-[1,4]diazepino[7,1-b]quinazolin-11(1H)-one], the EC50 was in the range of 100 to 300 nM.
`COCCn1cnc2cc(C#Cc3ccncc3)ccc2c1=O` [Example 1.17, 3-(2-methoxyethyl)-7-(pyridin-4-ylethynyl)quinazolin-4(3H)-one]: the EC50 lay within 100 to 300 nM.
For the compound `O=c1c2ccc(C#Cc3ccccn3)cc2nc2n1CC1CCCN1CC2` (single isomer, unassigned) [Example 9.4a/9.4b faster moving enantiomer (fraction 1), 9-(pyridin-2-ylethynyl)-2,3,5,6,14,14a-hexahydropyrrolo[2′,1′:3,4][1,4]diazepino[7,1-b]quinazolin-12(1H)-one], the half-maximal effective concentration (EC50) was in the range of 30 to 100 nM.
Turning to `O=c1c2ccc(C#Cc3cccc(F)c3)cc2nc2n1CCN(C1CCC1)CC2` [Example 8.11, 3-cyclobutyl-8-((3-fluorophenyl)ethynyl)-2,3,4,5-tetrahydro-[1,4]diazepino[7,1-b]quinazolin-11(1H)-one], the half-maximal effective concentration (EC50) is 300 to 1000 nM.
For `O=c1c2ccc(C#Cc3ccccc3F)cc2nc2n1CCC1(CC2)OCCO1` [Example 7.2] the value was 30 to 100 nM; for `O=c1c2ccc(C#Cc3ccccn3)cc2nc2n1CCC1(CC2)OCCO1` [Example 7.10], 30 to 100 nM; for `O=C1CCc2nc3cc(C#Cc4cccc(F)c4)ccc3c(=O)n2CCN1` [Example 10.5, 9-((3-fluorophenyl)ethynyl)-2,3,5,6-tetrahydro-1H-[1,4]diazocino[8,1-b]quinazoline-4,12-dione], 30 to 100 nM.
With `O=c1c2ccc(C#Cc3cccc(F)c3)cc2nc2n1CC(O)CC2` (centres unmarked) [Example 4.23, 3-((3-fluorophenyl)ethynyl)-8-hydroxy-8,9-dihydro-6H-pyrido[2,1-b]quinazolin-11(7H)-one], the EC50 was in the range of 30 to 100 nM.
Regarding `CC(C)Cn1cnc2cc(C#Cc3cccc(F)c3)ccc2c1=O` [Example 1.20, 7-((3-fluorophenyl)ethynyl)-3-isobutylquinazolin-4(3H)-one], the EC50 lay within 30 to 100 nM.
In the case of `CC1Cc2nc3cc(CCc4cccc(F)c4)ccc3c(=O)n2C1` (centres unmarked) [Example 21.7, 6-(3-fluorophenethyl)-2-methyl-2,3-dihydropyrrolo[2,1-b]quinazolin-9(1H)-one], the EC50 was 300 to 1000 nM.
With `CN1CCCC1c1nc2cc(C#Cc3cccc(F)c3)ccc2c(=O)n1C` (centres unmarked) [Example 2.4, 7-((3-fluorophenyl)ethynyl)-3-methyl-2-(1-methylpyrrolidin-2-yl)quinazolin-4(3H)-one], the EC50 was 100 to 300 nM.
Regarding `O=CN1CCc2nc3cc(C#Cc4cccc(F)c4)ccc3c(=O)n2CC1` [Example 8.18, 8-((3-fluorophenyl)ethynyl)-11-oxo-1,2,4,5-tetrahydro-[1,4]diazepino[7,1-b]quinazoline-3(11H)-carbaldehyde], the 50% effective concentration (EC50) fell in the range of 30 to 100 nM.
With `COC1(C)CCc2nc3cc(C#Cc4ccccn4)ccc3c(=O)n2C1` (centres unmarked) [Example 4.46, 8-methoxy-8-methyl-3-(pyridin-2-ylethynyl)-8,9-dihydro-6H-pyrido[2,1-b]quinazolin-11(7H)-one], the EC50 lay in the range of 10 to 30 nM.
With `CC1(C)CCn2c(nc3cc(/C=C/c4cccc(C#N)n4)ccc3c2=O)C1` [Example 20.9, (E)-6-(2-(7,7-dimethyl-11-oxo-7,8,9,11-tetrahydro-6H-pyrido[2,1-b]quinazolin-3-yl)vinyl)picolinonitrile], the EC50 lay in the range of 100 to 300 nM.
Consider `O=c1c2ccc(C#Cc3ccccn3)cc2nc2n1C1CCN(CC1)C2` [Example 8.26], for which the EC50 lay within 100 to 300 nM.
